One assay deals with MCF7. Nature of the assay: Cytotoxicity against Homo sapiens (human) MCF7 cells after 48 hr by SRB assay. Format: functional. The conditions noted are these: MCF7, 48 h. For orientation: Sulforhodamine B stains cellular protein and so reports cell mass.
The next assay has as its system OVCAR-3. Nature of the assay: Cytotoxicity against Homo sapiens (human) OVCAR3 cells after 48 hr by SRB assay. Format: functional. The settings on record: OVCAR-3, 48 h.
In another assay the test system is A498. Nature of the assay: Cytotoxicity against Homo sapiens (human) A498 cells after 48 hr by SRB assay. The conditions noted are these: A498, 48 h. Format: functional.
The subject of the next assay is SN12C. Nature of the assay: Cytotoxicity against Homo sapiens (human) SN12C cells after 48 hr by SRB assay. Format: functional.
The next assay relates to COLO 205. The assay can be described thus: Cytotoxicity against Homo sapiens (human) COLO205 cells after 48 hr by SRB assay. Format: functional. The settings on record: COLO 205, 48 h.
A further assay relates to SF-268. Nature of the assay: Cytotoxicity against Homo sapiens (human) SF268 cells after 48 hr by SRB assay. Format: functional. The conditions noted are these: SF-268, 48 h.
The subject of another assay is RPMI-8226. Nature of the assay: Cytotoxicity against Homo sapiens (human) RPMI8226 cells after 48 hr by SRB assay. Format: functional. The conditions noted are these: RPMI-8226, 48 h.
A further assay deals with SNB-75. The assay can be described thus: Cytotoxicity against Homo sapiens (human) SNB75 cells after 48 hr by SRB assay. Format: functional. The settings on record: SNB-75, 48 h.
Another assay has as its system SF-539. Nature of the assay: Cytotoxicity against Homo sapiens (human) SF539 cells after 48 hr by SRB assay. Format: functional. The conditions noted are these: SF-539, 48 h.
The next assay relates to HOP-62. The assay can be described thus: Cytotoxicity against Homo sapiens (human) HOP62 cells after 48 hr by SRB assay. The conditions noted are these: HOP-62, 48 h. Format: functional.
Assay [1] has as its target T1, Ubiquitin-like modifier-activating enzyme 1 (Homo sapiens) (UniProt P22314).
T1 sequence (whole entry): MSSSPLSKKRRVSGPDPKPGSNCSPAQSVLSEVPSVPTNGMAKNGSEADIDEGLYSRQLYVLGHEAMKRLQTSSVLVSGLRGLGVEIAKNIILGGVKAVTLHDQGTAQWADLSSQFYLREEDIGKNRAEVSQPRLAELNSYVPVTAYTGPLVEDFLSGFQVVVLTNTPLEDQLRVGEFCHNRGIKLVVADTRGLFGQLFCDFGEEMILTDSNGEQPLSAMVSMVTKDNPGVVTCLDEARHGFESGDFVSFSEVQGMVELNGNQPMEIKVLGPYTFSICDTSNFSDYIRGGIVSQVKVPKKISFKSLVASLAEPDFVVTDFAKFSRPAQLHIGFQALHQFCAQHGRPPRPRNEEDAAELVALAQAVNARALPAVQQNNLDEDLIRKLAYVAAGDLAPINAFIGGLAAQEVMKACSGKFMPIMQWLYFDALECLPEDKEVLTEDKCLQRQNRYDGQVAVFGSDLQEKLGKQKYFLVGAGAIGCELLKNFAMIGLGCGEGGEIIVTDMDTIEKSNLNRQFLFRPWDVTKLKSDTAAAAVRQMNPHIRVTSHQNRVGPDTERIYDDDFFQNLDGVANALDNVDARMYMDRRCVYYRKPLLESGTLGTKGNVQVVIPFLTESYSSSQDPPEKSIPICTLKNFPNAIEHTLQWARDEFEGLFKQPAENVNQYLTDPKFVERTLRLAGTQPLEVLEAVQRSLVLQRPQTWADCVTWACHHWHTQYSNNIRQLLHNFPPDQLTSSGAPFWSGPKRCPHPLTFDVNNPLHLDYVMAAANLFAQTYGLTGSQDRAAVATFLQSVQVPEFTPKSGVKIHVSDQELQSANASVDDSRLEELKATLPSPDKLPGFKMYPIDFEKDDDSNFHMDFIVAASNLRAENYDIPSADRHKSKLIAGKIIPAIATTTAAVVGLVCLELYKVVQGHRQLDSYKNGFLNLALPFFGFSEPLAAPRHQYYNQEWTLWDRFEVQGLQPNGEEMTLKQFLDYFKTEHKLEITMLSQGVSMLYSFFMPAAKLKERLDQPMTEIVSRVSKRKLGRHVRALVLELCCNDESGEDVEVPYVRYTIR
The assay can be described thus: Inhibition of ubiquitin displacement on His6-tagged E2 enzyme from His6-tagged UBA1 (unknown origin) at 10 uM after 1.5 hr by SDS-PAGE analysis.

Assay [2] in a line: Cytotoxicity against Homo sapiens (human) colon cancer cells assessed as cell growth at 10^-5 M after 48 hr by SRB assay relative to control. The settings on record: Cancer cell lines, read-out: Activity. Format: functional.
Assay [3] in a line: Cytotoxicity against Homo sapiens (human) melanoma cells assessed as cell growth at 10^-5 M after 48 hr by SRB assay relative to control. The settings on record: read-out: Activity. Format: functional.
A short description of assay [4]: Cytotoxicity against Homo sapiens (human) prostate cancer cells assessed as cell growth at 10^-5 M after 48 hr by SRB assay relative to control. Format: functional. The conditions noted are these: Cancer cell lines, read-out: Activity.
Assay [5] in a line: Cytotoxicity against Homo sapiens (human) renal cancer cells assessed as cell growth at 10^-5 M after 48 hr by SRB assay relative to control. Format: functional. The settings on record: Cancer cell lines, read-out: Activity.
A short description of assay [6]: Cytotoxicity against Homo sapiens (human) breast cancer cells assessed as cell growth at 10^-5 M after 48 hr by SRB assay relative to control. Format: functional. The settings on record: Cancer cell lines, read-out: Activity.
The nature of assay [7]: Cytotoxicity against Homo sapiens (human) CNSC cells assessed as cell growth at 10^-5 M after 48 hr by SRB assay relative to control. Format: functional. The conditions noted are these: read-out: Activity.
A short description of assay [8]: Cytotoxicity against Homo sapiens (human) ovarian cancer cells assessed as cell growth at 10^-5 M after 48 hr by SRB assay relative to control. Format: functional. The settings on record: Cancer cell lines, read-out: Activity.
Assay [9] is described as follows: Cytotoxicity against Homo sapiens (human) NSCLC cells assessed as cell growth at 10^-5 M after 48 hr by SRB assay relative to control. Format: functional. The settings on record: read-out: Activity.
The nature of assay [10]: Cytotoxicity against Homo sapiens (human) leukemia cells assessed as cell growth at 10^-5 M after 48 hr by SRB assay relative to control. Format: functional. The settings on record: read-out: Activity.

Active and inactive are the calls of the source. The rule behind the calls is not given here.

Usually GI50 stands for the concentration giving 50% growth inhibition.

Turning to `O=c1[nH]cc(F)c(=O)[nH]1` [FLUOROURACIL], the 50% growth inhibitory concentration (GI50) is 0.0794 µM in the assay on MCF7; 0.0158 µM with OVCAR-3; 0.398 µM in the assay on A498; 0.501 µM in the assay on SN12C; 0.158 µM in the assay with COLO 205; 1.58 µM in the assay with SF-268. In addition, the concentration for 50% growth inhibition (GI50) in the assay on RPMI-8226 was 0.0447 µM; with SNB-75 it was 79.4 µM; with SF-539 it was 0.0631 µM; with HOP-62, 0.398 µM.
For the molecule `COc1ccc2nc(NC(=O)Nc3ccc(F)cc3)sc2c1`, the inhibition result in assay [1] is “inactive”.
With `COc1ccc2nc(NC(=O)Nc3c(F)cccc3F)sc2c1`, the growth at 10 µM in [2] came to 107%; in assay [3] it was 102%; in assay [4], 100%; in assay [5], 97.9%; in assay [6] it was 107%; in assay [7] it was 104%. Also, the growth at 10 µM in [8] came to 108%; in [9], 99.2%; in assay [10], 91.2%. Moreover, the inhibition result in assay [1] was “inactive”.
With `N#Cc1ccc(C(=O)Nc2nc3ccc(OC(F)(F)F)cc3s2)cc1`, the inhibition entry in assay [1] was “inactive”.
Take `COc1ccc(NC(=O)Nc2nc3ccc(OC(F)(F)F)cc3s2)cc1`: the growth at 10 µM was 101% in [2]; 104% in [3]; 95.3% in assay [4]; 99.4% in [5]; 97.8% in assay [6]; 103% in assay [7]. In addition, the growth at 10 µM in assay [8] came out at 97.5%; in assay [9] it was 95.8%; in assay [10] it was 87%. For the same molecule, in assay [1], the inhibition result is “inactive”.
Consider `COc1ccc2nc(NC(=O)c3ccc(NC(C)=O)cc3)sc2c1`, for which the inhibition entry in assay [1] was “inactive”.
As for `COc1ccc2nc(NC(=O)c3ccc(C#N)cc3)sc2c1`, the inhibition entry in assay [1] was “inactive”.
Take `COc1ccc2nc(NC(=O)c3c(F)cccc3F)sc2c1`: the inhibition result in assay [1] is “inactive”.
Consider `O=C(Nc1nc2ccc(OC(F)(F)F)cc2s1)c1ccc(F)cc1`, for which the inhibition result in assay [1] was “inactive”.
Regarding `COc1ccc2nc(NC(=O)c3ccc(F)cc3)sc2c1`, in assay [1], the inhibition entry was “inactive”.
With `O=C(Nc1nc2ccc(OC(F)(F)F)cc2s1)c1c(F)cccc1F`, in assay [1], the inhibition entry is “inactive”.
As to `COc1ccc2nc(NC(=O)Nc3ccc(C#N)cc3)sc2c1`, the inhibition entry in assay [1] was “inactive”.
For the molecule `COc1ccc(C(=O)Nc2nc3ccc(OC)cc3s2)cc1`, the inhibition entry in assay [1] is “inactive”.
Consider `COc1ccc(C(=O)Nc2nc3ccc(OC(F)(F)F)cc3s2)cc1`, for which, in assay [1], the inhibition result is “inactive”.
Turning to `CC(=O)Nc1ccc(C(=O)Nc2nc3ccc(OC(F)(F)F)cc3s2)cc1`, the inhibition result in assay [1] is “inactive”.
As to `COc1ccc(NC(=O)Nc2nc3ccc(OC)cc3s2)cc1`, the inhibition result in [1] is “inactive”.
As for `O=C(Nc1nc2ccc(OC(F)(F)F)cc2s1)Nc1c(F)cccc1F`, the growth at 10 µM was 91.8% in assay [2]; 89.6% in assay [3]; 83.8% in assay [4]; 89.4% in assay [5]; 89.5% in [6]; 96% in assay [7]. Further, the figures for the growth at 10 µM in assay [8], in assay [9] and in assay [10] were 90.2%, 77.6% and 64.4%, respectively. Further, the inhibition entry in assay [1] was “inactive”.

These data come from ChEMBL document CHEMBL3046368, “Synthesis of benzothiazole derivatives and their biological evaluation as anticancer agents” (2012).
